Legend:
[1] = tested on: A549-ACE2 infected with SARS-CoV-2; assay: morphology score (similarity to uninfected cells); higher = more like uninfected cells; conditions: 24 h
[2] = tested on: A549-ACE2 infected with SARS-CoV-2; assay: cell count relative to DMSO; higher = less toxic; conditions: 24 h
Caco-2 [3] = assay: relative viability EC50 (midpoint between 100% and the lowest measured viability); higher = less toxic; conditions: 72 h
HepG2 [4] = assay: as above; conditions: 72 h
Vero E6 [5] = assay: as above; conditions: 72 h
U2OS [6] = assay: as above; conditions: 72 h
Calu-3 [7] = assay: as above; conditions: 72 h
[8] = tested on: A549-ACE2 infected with SARS-CoV-2; assay: SARS-CoV-2 infection rate relative to DMSO; higher = more infection; conditions: 24 h
Caco-2 [9] = assay: drug sensitivity score (DSS) for viability; higher = more toxic; extreme values may be limits of the assay; conditions: 72 h
HepG2 [10] = assay: as above; conditions: 72 h
Vero E6 [11] = assay: as above; conditions: 72 h
U2OS [12] = assay: as above; conditions: 72 h
Calu-3 [13] = assay: as above; conditions: 72 h
A549-ACE2 = assay: drug-induced phospholipidosis relative to tamoxifen; higher = more phospholipidosis
Caco-2 [14] = assay: cell viability relative to DMSO; higher = less toxic; conditions: 72 h
HepG2 [15] = assay: as above; conditions: 72 h
Vero E6 [16] = assay: as above; conditions: 72 h
U2OS [17] = assay: as above; conditions: 72 h
Calu-3 [18] = assay: as above; conditions: 72 h

CCCN1CCN(c2ccc(C(=O)NC3(C(=O)NCC#N)CCCCC3)cc2)CC1 [balicatib]
Conditions | SARS-CoV-2 infection rate, [8] [%] | cell count, [2] [%] | cell viability, Caco-2 [14] [%] | cell viability, Calu-3 [18] [%] | cell viability, HepG2 [15] [%] | cell viability, U2OS [17] [%] | cell viability, Vero E6 [16] [%] | morphology score, [1]
1 nM | – | – | 107 | 108 | 90 | 100 | 99.7 | –
10 nM | – | – | 101 | 100 | 103 | 99.7 | 108 | –
100 nM | – | – | 102 | 98.8 | 114 | 95 | 108 | –
0.3 µM | 86 | 107 | – | – | – | – | – | 0.39
1000 nM | – | – | 95.4 | 108 | 104 | 103 | 98.1 | –
3 µM | 45 | 116 | – | – | – | – | – | 0.76
10 µM | 33 | 119 | – | – | – | – | – | 0.78
10000 nM | – | – | 106 | 110 | 101 | 95.4 | 105 | –
30 µM | 20 | 117 | – | – | – | – | – | 0.83

Conditions | drug sensitivity score | relative viability EC50 [nM]
Caco-2 [3] | – | > 10000
Caco-2 [9] | 0 | –
Calu-3 [7] | – | > 10000
Calu-3 [13] | 0 | –
HepG2 [4] | – | > 10000
HepG2 [10] | 0 | –
U2OS [6] | – | > 10000
U2OS [12] | 0 | –
Vero E6 [5] | – | > 10000
Vero E6 [11] | 0 | –

drug-induced phospholipidosis [%], A549-ACE2
Conditions | 0.3 µM | 0.833333 µM | 3.33333 µM | 6.66667 µM | 10 µM | 30 µM
24 h | 1.43 | -0.89 | 1.98 | 6.47 | 8.06 | 17.1
48 h | 1.09 | -1.16 | 0.49 | 4.83 | 7.84 | 17.9
72 h | 4.12 | -0.524 | 1.07 | 5.37 | 8.73 | 20.4

CC(C)C[C@H](NC(=O)[C@H](Cc1ccccc1)NC(=O)c1cnccn1)B(O)O [bortezomib]
Conditions | SARS-CoV-2 infection rate, [8] [%] | cell count, [2] [%] | cell viability, Caco-2 [14] [%] | cell viability, Calu-3 [18] [%] | cell viability, HepG2 [15] [%] | cell viability, U2OS [17] [%] | cell viability, Vero E6 [16] [%] | morphology score, [1]
1 nM | – | – | 104 | 103 | 122 | 104 | 111 | –
10 nM | – | – | 20.1 | 26.4 | 59.1 | 63.9 | 66.4 | –
100 nM | – | – | 4.1 | 4.4 | 1.8 | -0.1 | 3 | –
0.3 µM | 45 | 57 | – | – | – | – | – | 0.26
1000 nM | – | – | 5.9 | 5 | -0.2 | -0.4 | 0.2 | –
3 µM | 21 | 30 | – | – | – | – | – | 0.33
10 µM | 16 | 27 | – | – | – | – | – | 0.29
10000 nM | – | – | 6.2 | 2.4 | -0.3 | -0.4 | 0.1 | –
30 µM | 23 | 24 | – | – | – | – | – | 0.23

Conditions | drug sensitivity score | relative viability EC50 [nM]
Caco-2 [3] | – | 5.3
Caco-2 [9] | 38.6 | –
Calu-3 [7] | – | 6.4
Calu-3 [13] | 38.3 | –
HepG2 [4] | – | 11.6
HepG2 [10] | 35.9 | –
U2OS [6] | – | 12.6
U2OS [12] | 35.5 | –
Vero E6 [5] | – | 13.2
Vero E6 [11] | 35.2 | –
